Reference: patent publication US20100197650A1, “COMPOSITIONS AND METHODS OF TREATMENT COMPRISING CEFTAROLINE” (FOREST LABORATORIES HOLDINGS LTD., priority 2008, published 2010)
Values after ≈ are worked out from the molar mass of the structure shown. Values joined by “and” are separate entries in the source; they are usually repeats but may differ in a detail not shown here. Identical values can stand only once. Like-named read-outs stand apart in the source and are kept apart here.

Assays:
Enterococcus faecalis = test: MIC, broth microdilution (Example 1); type: cell-based
Method: (§1) Stock solutions of all antibacterial agents were prepared at 80-fold (80×) the final target concentration in the appropriate solvent and the solution was allowed to stand for 60 minutes. All antibacterial agents were in solution under these conditions. The final drug concentrations in the FIC assay plates were set to bracket the MIC value of each agent for each test organism, unless the strain was totally resistant to the test agent.
(§2) The test organisms were originally received from clinical sources, or from the American Type Culture Collection. Upon receipt, the isolates were streaked onto the appropriate growth medium: Chocolate Agar for H. influenzae, Tryptic Soy Agar II (Becton Dickinson, Sparks, Md.) supplemented with 5% defibrinated sheep blood for streptococci, and unsupplemented Tryptic Soy Agar II for all other organisms. Colonies were harvested from these plates and a cell suspension was prepared in Tryptic Soy Broth (Becton Dickinson) containing cryoprotectant. Aliquots were then frozen at −80° C. On the day prior to assay, the frozen seeds of the organisms to be tested in that session were thawed and streaked for isolation onto the appropriate agar medium plates and incubated overnight at 35° C.
(§3) The test medium for H. influenzae was Haemophilus Test Medium. Streptococci were tested in Mueller Hinton II Broth (Becton Dickinson; Lot 6235472) supplemented with 2% lysed horse blood (Cleveland Scientific, Bath, Ohio; Lot H88621). All other organisms were tested in Mueller Hinton II Broth (Becton Dickinson, Lot 6235472). The broth was prepared at 1.05× normal weight/volume to offset the 5% volume of the drugs in the final test plates.
(§4) In order to select the proper test concentrations for each drug combination, minimal inhibitory concentration (MIC) values were first determined using the broth microdilution method previously described (Clinical and Laboratory Standards Institute. Methods for Dilution Antimicrobial Susceptibility Tests for Bacteria That Grow Aerobically; Approved Standard—Seventh Edition. Clinical and Laboratory Standards Institute document M7-A7 [ISBN 1-56238-587-9]. Clinical and Laboratory Standards Institute, 940 West Valley Road, Suite 1400, Wayne, Pa. 19087-1898 USA, 2006).
(§5) The wells of standard 96-well microdilution plates (Falcon 3918) were filled with 150 μL of 100% DMSO using the Multidrop 384. These plates were used to prepare the drug “mother plates” which provided the serial drug dilutions for the drug combination plates. The Biomek 2000 was used to transfer 150 μl of each stock solution (80×) from the wells in Column 1 of a deep well plate to the corresponding wells in Column 1 of the mother plate and to make seven 2-fold serial dilutions. Two mother plates, one for each drug, were combined to form a “checkerboard” pattern by transfer of equal volumes (using a multi-channel pipette) to the drug combination plate. Row H and Column 8 each contained serial dilutions of one of the agents alone for determination of the MIC.
(§6) Plates were stacked 3 high, covered with a lid on the top plate, placed in plastic bags, and incubated at 35° C. for approximately 20 hours. Following incubation, the microplates were removed from the incubator and viewed from the bottom using a ScienceWare plate viewer. Prepared reading sheets were marked for the MIC of drug 1 (row H), the MIC of drug 2 (column 8) and the wells of the growth-no growth interface.

Staphylococcus aureus = test: MIC, broth microdilution (Example 1); type: cell-based
Method: as §1, §2, §3, §4, §5, §6

HA-MRSA = test: Susceptibility testing MIC/MBC, broth microdilution (Example 3); type: cell-based, Staphylococcus aureus; conditions: for MIC50 / MIC90 / MBC / MIC: Staphylococcus aureus; for MIC50: read-out: MIC50; for MIC90: read-out: MIC90; for MBC: read-out: MBC; for MIC: read-out: MIC
Method: Two hundred clinical HA-MRSA isolates, harboring the SCCmecIV type, were evaluated for susceptibility testing. […] Four strains, including 1 hVISA and 1 VISA, characterized by population analysis profile and Macro Etest were selected for time-kill analysis.
Trypose soy agar (TSA; Difco, Detroit, Mich.) was used for colony counting.
Minimum inhibitory concentrations (MIC) and minimum bactericidal concentrations (MBC) were determined by broth microdilution for all antimicrobials, according to the Clinical and Laboratory Standards Institute (CLSI) guidelines (Clinical and Laboratory Standards Institute. 2006. Methods for Dilution Antimicrobial Susceptibility Tests for Bacteria That Grow Aerobically; Approved Standard. 7th ed. Wayne, Pa.: CLSI). MBC values were determined by plating of aliquots of 5 μL from clear wells onto TSA. All susceptibility testing were performed in duplicate.

Streptococcus pyogenes = test: MIC, broth microdilution (Example 1); type: cell-based
Method: as §1, §2, §3, §4, §5, §6

[1] = Staphylococcus aureus, ATCC29213, S. aureus 0100 (ATCC 29213), FIC control, read-out: MIC
[2] = Streptococcus pyogenes, S. pyogenes 0717, read-out: MIC
[3] = Streptococcus pyogenes, S. pyogenes 0722, read-out: MIC
[4] = Enterococcus faecalis, E. faecalis 0795 (VSE), read-out: MIC
[5] = Enterococcus faecalis, E. faecalis 0796 (VSE), read-out: MIC
[6] = Staphylococcus aureus, MRSA, S. aureus 0765 (MRSA), read-out: MIC
[7] = Staphylococcus aureus, MRSA, S. aureus 2053 (MRSA), read-out: MIC
[8] = Staphylococcus aureus, MSSA, S. aureus 0753 (MSSA), read-out: MIC
[9] = Staphylococcus aureus, MSSA, S. aureus 2063 (MSSA), read-out: MIC
[10] = MRSA / VISA, HA-MRSA isolate R2303 (VISA)
[11] = MRSA, HA-MRSA isolate R3875 (hVISA)

SMILES | % of Isolates with MIC 0.25 μg/mL (HA-MRSA; 200 HA-MRSA isolates) [%] | % of Isolates with MIC 0.5 μg/mL (HA-MRSA; 200 HA-MRSA isolates) [%] | % of Isolates with MIC 1 μg/mL (HA-MRSA; 200 HA-MRSA isolates) [%] | % of Isolates with MIC ≧4 μg/mL (HA-MRSA; 200 HA-MRSA isolates) [%] | MIC range (HA-MRSA; 200 HA-MRSA isolates) [µg/mL] | MIC50 (HA-MRSA; MRSA, 200 HA-MRSA isolates) [µg/mL] | MIC90 (HA-MRSA; 200 HA-MRSA isolates) [µg/mL] | MIC (Streptococcus pyogenes; [2]) [µg/mL] | MIC (Streptococcus pyogenes; [3]) [µg/mL] | MIC (Enterococcus faecalis; [4]) [µg/mL] | MIC (Enterococcus faecalis; [5]) [µg/mL] | MIC (Staphylococcus aureus; [6]) [µg/mL] | MIC (Staphylococcus aureus; [7]) [µg/mL] | MIC (Staphylococcus aureus; [8]) [µg/mL] | MIC (Staphylococcus aureus; [1]) [µg/mL] | % of Isolates with MBC 0.5 μg/mL (HA-MRSA; 200 HA-MRSA isolates) [%] | % of Isolates with MBC 1 μg/mL (HA-MRSA; 200 HA-MRSA isolates) [%] | % of Isolates with MBC 2 μg/mL (HA-MRSA; 200 HA-MRSA isolates) [%] | % of Isolates with MBC ≧4 μg/mL (HA-MRSA; 200 HA-MRSA isolates) [%] | MBC range (HA-MRSA; 200 HA-MRSA isolates) [µg/mL] | other results
O=C(O)c1cn(C2CC2)c2cc(N3CCNCC3)c(F)cc2c1=O [Ciprofloxacin] | – | – | – | – | – | – | – | – | – | – | – | – | – | – | 0.25 to 0.5 | – | – | – | – | – | MIC (Enterococcus faecalis; E. faecalis 0101 (ATCC 29212), FIC control): 1 µg/mL and 0.5 µg/mL; MIC (Enterococcus faecalis; Enterococcus faecalis, ATCC29212, E. faecalis 0101 (ATCC 29212), FIC control, read-out: MIC): 0.5 to 1 µg/mL; MIC (Staphylococcus aureus; S. aureus 0100 (ATCC 29213), FIC control): 0.50 µg/mL and 0.25 µg/mL
O=C(O)[C@H]1/C(=C/CO)O[C@@H]2CC(=O)N21 [Clavulanate] | – | – | – | – | – | – | – | – | – | – | – | – | – | – | > 16 | – | – | – | – | – | –
CCCCCCCCCC(=O)N[C@@H](Cc1c[nH]c2ccccc12)C(=O)N[C@H](CC(N)=O)C(=O)N[C@@H](CC(=O)O)C(=O)N[C@@H]1C(=O)NCC(=O)N[C@@H](CCCN)C(=O)N[C@@H](CC(=O)O)C(=O)N[C@H](C)C(=O)N[C@@H](CC(=O)O)C(=O)NCC(=O)N[C@H](CO)C(=O)N[C@@H]([C@H](C)CC(=O)O)C(=O)N[C@@H](CC(=O)c2ccccc2N)C(=O)O[C@@H]1C [Daptomycin] | 58.5 | 20.5 | 1 | 0.5 | 0.125 to 4 | 0.25 (≈ 0.154 µM) | 0.5 (≈ 0.309 µM) | 0.05 | 0.06 | 1 | 2 | 0.5 | 0.5 | 0.5 | – | 35 | 5 | 2.5 | 0.5 | 0.125 to 4 | % of Isolates with MBC 0.25 μg/mL (HA-MRSA; 200 HA-MRSA isolates): 47.5%; % of Isolates with MBC […] (HA-MRSA; 200 HA-MRSA isolates): 9.5%; % of Isolates with MIC […] (HA-MRSA; 200 HA-MRSA isolates): 19.5%; MIC (Streptococcus pyogenes; S. pyogenes 0717): 0.06 µg/mL; MIC (Staphylococcus aureus; [9]): 1 µg/mL
CC(=O)NC[C@H]1CN(c2ccc(N3CCOCC3)c(F)c2)C(=O)O1 [Linezolid] | 9.5 | 16 | 15.5 | 11.5 | 0.25 to 4 | 2 (≈ 5.93 µM) | 4 (≈ 11.9 µM) | 1 | 1 | 2 | 4 | 4 | 2 | 4 | – | 1.5 | 12 | 13.5 | 73 | 0.5 to 64 | % of Isolates with MIC 2 μg/mL (HA-MRSA; 200 HA-MRSA isolates): 47.5%; MIC (Enterococcus faecalis; Enterococcus faecalis, VRE, E. faecalis 0847 (VRE), read-out: MIC): 2 µg/mL; MIC (Enterococcus faecalis; Enterococcus faecalis, VRE, E. faecalis 0849 (VRE), read-out: MIC): 2 µg/mL; MIC (Staphylococcus aureus; [9]): 4 µg/mL
NC[C@H]1O[C@H](O[C@H]2[C@H](O)[C@@H](O[C@H]3O[C@H](CO)[C@@H](O)[C@H](N)[C@H]3O)[C@H](N)C[C@@H]2N)[C@H](N)C[C@@H]1O [Tobramycin] | – | – | – | – | – | – | – | – | – | – | – | – | – | – | – | – | – | – | – | – | MBC (HA-MRSA; [10]): 0.5 µg/mL (≈ 1.07 µM); MIC (HA-MRSA; [10]): 0.125 µg/mL (≈ 0.267 µM); MBC (HA-MRSA; MRSA, HA-MRSA isolate R3804): 1 µg/mL (≈ 2.14 µM); MIC (HA-MRSA; MRSA, HA-MRSA isolate R3804): 0.5 µg/mL (≈ 1.07 µM); MBC (HA-MRSA; [11]): 0.5 µg/mL (≈ 1.07 µM); MIC (HA-MRSA; [11]): 0.5 µg/mL (≈ 1.07 µM); MBC (HA-MRSA; MRSA, HA-MRSA isolate R4039): 1 µg/mL (≈ 2.14 µM); MIC (HA-MRSA; MRSA, HA-MRSA isolate R4039): 1 µg/mL (≈ 2.14 µM)
